Reference: US7994167B2, “Pentafluorosulphanyl-substituted compound and its use for producing medicaments” (Gruenenthal GmbH, priority 2005, dated 2011)
Where two headings read alike, the source gives them in different places.

How the values were obtained:
[1] = biological target: vanilloid receptor 1 (VR1/TRPV1 receptor) (Homo sapiens, UniProt Q8NER1); test: Binding affinity for the vanilloid receptor 1
Method: The affinity of the pentafluorosulphanyl-substituted compounds according to the invention for the vanilloid receptor 1 (VR1/TRPV1 receptor) was determined as described above.

[2] = biological target: T1, vanilloid receptor 1 (VR1/TRPV1) of the rat (Rattus norvegicus, UniProt O35433); test: FLIPR Ca2+ influx assay in rat dorsal root ganglia cells (functional investigation I); type: cell-based; conditions: for IC50: VR1 rat; for VR1 (rat) (% blocking compared with 1 μM CP) / VR1 (rat) (% stimulation compared with 1 μM CP): rat DRG cells, test compound 1 μM; for VR1 (rat) (% blocking compared with 1 μM CP): 5 min incubation, then 100 nM capsaicin; for VR1 (rat) (% stimulation compared with 1 μM CP): Ca2+ signal relative to 1 μM capsaicin (CP)
T1 construct: The spinal column was removed from decapitated rats; from tissue; host or cells: primary rat dorsal root ganglion (DRG) cells
Source text: I. Functional Investigation Using the Vanilloid Receptor 1 (VR1/TRPV1 Receptor)
The agonistic and antagonistic effects of the substances under investigation on the vanilloid receptor 1 (VR1/TRPV1) of the rat can be determined using the following assay. According to this assay, the Ca^2+ influx through the receptor channel is quantified with the aid of a Ca^2+-sensitive dye (of the type Fluo-4, from Molecular Probes Europe BV, Leiden, Netherlands) in a Fluorescent Imaging Plate Reader (FLIPR, from Molecular Devices, Sunnyvale, USA).
Complete medium: 10% by volume FCS (foetal calf serum, from Gibco Invitrogen GmbH, Karlsruhe, Germany, heat deactivated);
2 mM L-glutamine (from Sigma, Munich, Germany);
1% by weight of AA solution (antibiotic/antimycotic solution, from PAA, Pasching, Austria) and 25 ng/ml Medium NGF (2.5 S, from Gibco Invitrogen GmbH, Karlsruhe, Germany)
Cell culture plate: poly-D-lysine-coated, black 96-well plates with clear bases (96 well black/clear plate, from BD Biosciences, Heidelberg, Germany) were also coated with laminin (from Gibco Invitrogen GmbH, Karlsruhe, Germany), in that the laminin was diluted to a concentration of 100 μg/ml with PBS (Ca—Mg-free PBS, from Gibco Invitrogen GmbH, Karlsruhe, Germany). Aliquots with a concentration of 100 μg/ml of laminin were taken and stored at −20° C. The aliquots were diluted with PBS in a ratio of 1:10 to 10 μg/ml laminin and 50 μl of the solution was pipetted into each well in the cell culture plate. The cell culture plates were then incubated for at least two hours at 37° C., the residual solution drawn off and the wells washed twice with PBS. The coated cell culture plates were stored with the residual PBS, which was removed immediately before offering up the cells.
Preparation of the Cells:
The spinal column was removed from decapitated rats and laid directly into cold (placed in an ice bath) HBSS buffer (Hank's buffered saline solution, from Gibco Invitrogen GmbH, Karlsruhe, Germany) to which was added 1% by volume of an AA-solution (antibiotic/antimycotic solution, from PAA, Pasching, Austria). The spinal column was bisected longitudinally and removed, together with the fasciae, from the vertebral canal. The dorsal root ganglia (DRGs) were then removed and again placed in cold HBSS buffer to which was added 1% by volume of an AA-solution, and stored. The DRGs, completely freed from residual blood and spinal nerves were transferred, in each case, into 500 μl cold collagenase type 2 (from PAA, Pasching, Austria) and incubated for 35 minutes at 37° C. Following addition of 2.5% by volume of trypsin (from PAA, Pasching, Austria), the material was incubated for a further 10 minutes at 37° C. Following complete incubation, the enzyme solution was carefully pipetted off and 500 μl complete medium was added to the remaining DRGs. The DRGs were suspended several times in each case, drawn by means of a syringe through No. 1, No. 12 and No. 16 cannulae and transferred to 50 ml Falcon tubes and these then filled to 15 ml with complete medium. The contents of each Falcon tube was filtered through a 70 μm Falcon filter insert and centrifuged for 10 minutes at 1200 revolutions and at room temperature. The resulting pellet was added, in each case, to 250 μl complete medium and the cell count was determined.
The number of cells in the suspension was adjusted to 3×10^5 per ml and, in each case, 150 μl of this suspension was placed in a well in the coated cell culture plate of the type described above. The plates were left in an incubation cupboard at 37° C. under 5% by volume CO2 and 95% relative humidity for two to three days. […]

[3] = biological target: T2, VR1 (human) (Homo sapiens, UniProt Q8NER1); test: FLIPR Ca2+ influx assay in CHO K1 cells stably transfected with the VR1 gene (functional investigation II); type: cell-based; conditions: for VR1 (human) (% blocking compared with 1 μM CP) / VR1 (human) (% stimulation compared with 1 μM CP): VR1-transfected CHO K1 cells; for VR1 (human) (% blocking compared with 1 μM CP): 5 min incubation, then 100 nM capsaicin; for VR1 (human) (% stimulation compared with 1 μM CP): Ca2+ signal relative to capsaicin (CP)
T2 construct: expressed in transfected cells; host or cells: CHO K1 cells (ECACC)
Source text: II. Functional Investigation Using the Vanilloid Receptor (VR1)
The agonistic or antagonistic effect of the substances to be investigated on the vanilloid receptor (VR1) can also be determined with the following assay. According to this assay, the Ca^2+ influx through the channel can be quantified with the aid of a Ca^2+ sensitive dye (of the type Fluo-4, from Molecular Probes, Europe BV, Leiden, Netherlands) in a Fluorescent Imaging Plate Reader (FLIPR, from Molecular Devices, Sunnyvale, USA).
Chinese hamster ovary cells (CHO K1-cells, from the European Collection of Cell Cultures (ECACC), UK) were stably transfected with the VR1 gene. For functional investigations, these cells were plated out on Poly-D-lysine-coated, black 96-well plates with clear bases (from BD Biosciences, Heidelberg, Germany) at a density of 25,000 cells/well. The cells were incubated over night at 37° C. and under 5% CO2 in a culture medium (Nutrient Mixture Ham's F12, 10% by volume FCS (foetal calf serum), 18 μg/ml L-proline). The following day, the cells were incubated with Fluo-4 (Fluo-4 2 μM, Pluronic F127 0.01% by volume, from Molecular Probes in HBSS (Hank's buffered saline solution), from Gibco Invitrogen GmbH, Karlsruhe, Germany) for 30 minutes at 37° C. Subsequently, the plates were washed 3 times with HBSS buffer and, following a further period of incubation for 15 minutes at room temperature, placed in the FLIPR for Ca^2+ measurement. The Ca^2+-dependent fluorescence was measured before and after the addition of the substances to be investigated (wavelength λBX=488 nm, λem=540 nm). Quantification took place by measuring the highest intensity of fluorescence (FC, fluorescence counts) over time.
The FLIPR protocol comprises 2 substance additions. […] Following 5 minutes of incubation, 100 nM capsaicin were applied and the Ca^2+ influx determined again.
Desensitising agonists and antagonists lead to a suppression of the Ca^2+ influx. % inhibition is calculated, compared with the maximum achievable inhibition with 10 μM capsaicin.

Chain of vanilloid receptor 1 (VR1/TRPV1 receptor) (Q8NER1 whole entry, species assumed): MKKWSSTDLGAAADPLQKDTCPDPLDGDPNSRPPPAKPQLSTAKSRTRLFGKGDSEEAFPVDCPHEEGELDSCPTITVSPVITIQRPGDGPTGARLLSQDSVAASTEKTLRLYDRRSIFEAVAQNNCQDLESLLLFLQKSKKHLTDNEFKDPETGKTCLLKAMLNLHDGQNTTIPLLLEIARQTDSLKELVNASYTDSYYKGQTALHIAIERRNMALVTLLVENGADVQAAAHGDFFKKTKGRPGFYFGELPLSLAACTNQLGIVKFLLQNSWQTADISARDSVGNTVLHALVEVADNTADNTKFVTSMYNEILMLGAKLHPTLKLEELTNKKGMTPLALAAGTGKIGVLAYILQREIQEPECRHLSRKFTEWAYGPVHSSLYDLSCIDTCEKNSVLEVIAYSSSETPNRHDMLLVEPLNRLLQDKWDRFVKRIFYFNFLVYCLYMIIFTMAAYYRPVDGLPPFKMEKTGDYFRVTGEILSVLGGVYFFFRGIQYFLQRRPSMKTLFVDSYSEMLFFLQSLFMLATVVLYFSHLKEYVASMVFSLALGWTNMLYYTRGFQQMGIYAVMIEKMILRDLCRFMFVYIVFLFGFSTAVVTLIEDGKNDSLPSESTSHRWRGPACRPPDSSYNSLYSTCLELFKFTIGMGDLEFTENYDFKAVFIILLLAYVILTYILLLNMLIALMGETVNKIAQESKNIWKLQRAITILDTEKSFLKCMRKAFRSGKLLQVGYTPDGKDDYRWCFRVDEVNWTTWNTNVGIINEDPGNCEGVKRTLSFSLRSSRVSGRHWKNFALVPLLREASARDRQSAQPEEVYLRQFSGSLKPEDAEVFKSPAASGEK
T2 sequence (Q8NER1 whole entry): as the sequence (Q8NER1 whole entry, species assumed) above
T1 sequence (O35433 whole entry): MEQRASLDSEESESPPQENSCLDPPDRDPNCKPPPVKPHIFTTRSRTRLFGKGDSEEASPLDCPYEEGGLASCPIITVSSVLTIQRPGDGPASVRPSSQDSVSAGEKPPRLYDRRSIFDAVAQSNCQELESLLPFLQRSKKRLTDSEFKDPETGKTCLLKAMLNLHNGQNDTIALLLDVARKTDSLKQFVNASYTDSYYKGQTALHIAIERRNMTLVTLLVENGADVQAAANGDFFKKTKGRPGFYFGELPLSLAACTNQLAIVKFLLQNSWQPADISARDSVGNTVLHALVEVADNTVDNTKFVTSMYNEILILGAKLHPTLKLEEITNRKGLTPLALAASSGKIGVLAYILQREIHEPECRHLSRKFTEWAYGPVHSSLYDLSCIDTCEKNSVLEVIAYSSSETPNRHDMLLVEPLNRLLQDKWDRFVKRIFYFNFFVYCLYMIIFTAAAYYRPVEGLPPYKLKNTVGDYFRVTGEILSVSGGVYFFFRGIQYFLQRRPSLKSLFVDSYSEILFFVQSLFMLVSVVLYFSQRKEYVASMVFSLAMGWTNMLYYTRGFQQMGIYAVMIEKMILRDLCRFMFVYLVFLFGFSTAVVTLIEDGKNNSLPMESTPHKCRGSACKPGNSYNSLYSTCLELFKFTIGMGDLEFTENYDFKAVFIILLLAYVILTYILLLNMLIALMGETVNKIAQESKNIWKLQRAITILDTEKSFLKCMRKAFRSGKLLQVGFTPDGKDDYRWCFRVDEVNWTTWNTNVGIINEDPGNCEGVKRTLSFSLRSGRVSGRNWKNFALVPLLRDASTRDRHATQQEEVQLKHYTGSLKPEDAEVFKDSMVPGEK

Compound	Ki ([1]; read-out: Binding Ki) [nM]	IC50 [2] [nM]	VR1 (rat) (% blocking compared with 1 μM CP) [2] [%]	VR1 (rat) (% stimulation compared with 1 μM CP) [2] [%]	VR1 (human) (% blocking compared with 1 μM CP) [3] [%]	VR1 (human) (% stimulation compared with 1 μM CP) [3] [%]	IC50 ([3]; VR1 human, read-out: IC50 (human)) [nM]	Ki [1] [nM]	IC50 [3] [nM]
FS(F)(F)(F)(F)c1ccc(NC(=S)N2CCN(c3ncccc3Cl)CC2)cc1 [Example 3, 4-(3-chloro-pyridin-2-yl)-piperazine-1-thiocarboxy-(4-pentafluorosulphanyl-phenyl)-amide]	94								
CS(=O)(=O)Nc1ccc(CNC(=S)NCc2ccc(S(F)(F)(F)(F)F)cc2)cc1F [Example 1, N-{4-[3-(4-pentafluorosulphanyl-benzyl)-thioureidomethyl]-2-fluoro-phenyl}-methanesulphonamide]	84	360	90.27	0.02	87.67	0.68	800		
O=C(Nc1ccc(S(F)(F)(F)(F)F)cc1)N1CCN(c2ncccc2Cl)CC1 [Example 2, 4-(3-chloro-pyridin-2-yl)-piperazine-1-carboxy-(4-pentafluorosulphanyl-phenyl)-amide]		48	101.93	0.63	105.44	3.72		12	250
